Results: paper PMC8219027, “A small-molecule inhibitor of the BRCA2-RAD51 interaction modulates RAD51 assembly and potentiates DNA damage-induced cell death” (Cell Chemical Biology, 2021)
≈ marks a conversion by molar mass, not a printed value.

Experiments:
[1] = test system: BT20; experiment: cells; conditions: Homo sapiens, BT-20, read-out: Absolute EC50, growth inhibition
[2] = Microsomal intrinsic clearance; conditions: rat, rat microsomes
[3] = test system: HUVEC; experiment: cells; conditions: Homo sapiens, read-out: Absolute EC50, growth inhibition
[4] = test system: HFL-1; experiment: cells; conditions: Homo sapiens, HFL1, read-out: Absolute EC50, growth inhibition
[5] = test system: Caki1; experiment: cells; conditions: Homo sapiens, CAKI-1, read-out: Absolute EC50, growth inhibition
[6] = test system: HCT116 cells; experiment: SRB growth inhibition assay; type: cell-based, human; conditions: for IC50 / GI50: Homo sapiens; for IC50: HCT-116, 96 h, Figure 6D (cell line not given); for GI50: HCT-116, geometrical mean, n = 18
Protocol: Adherent cell lines (HCT116 and A549 cells) were seeded into flat-bottomed tissue culture 96-well plates in a volume of 150 μL of growth medium. HCT116 cells were seeded at 750 cells per well and A549 cells were seeded at 1000 cells per well. After 24 hours, compounds dissolved in DMSO were diluted in growth medium and were added to cells such that the final DMSO concentration was 1% (v/v) and the final volume in the well was 200 μL. Cells were then incubated in the presence of compound for 96 hours before fixation.
Medium was removed from cells and 100 μL of cold 1% (v/v) trichloroacetic acid was added for 30 minutes at 4 degrees. The plates were washed three times in tap water and left to dry at room temperature. The fixed cells were stained in a 0.057% sulphorodamine B/1% acetic acid solution (w/v) and incubated at room temperature with agitation for 30 minutes after which the dye was removed and the plates washed in 1% (v/v) acetic acid and left to dry. The dye was then solubilised in 10 mM Tris solution (pH8) and incubated for 30 minutes under agitation. The plates were then read on a PHERAstar plus plate reader (BMG Labtech) using the fluorescence intensity module (540-590 nm). Growth inhibition was calculated relative to DMSO controls and GI50 values were calculated using Graphpad Prism.

[7] = test system: RAD51 clusters in EUFA423 cells; experiment: RAD51 molecular clustering by SMLM (d-STORM); type: cell-based, human; conditions: 25 μM, 3 h after 3 Gy IR
Protocol: (§1) […]; [Howlett et al., 2002]). We developed, as isogenic controls, EUFA423 cells complemented by the expression of full-length BRCA2 (EUFA423 + BRCA2) ([Hattori et al., 2011]). […]. […] […].
(§2) Single Molecule Localization Microscopy (SMLM) was achieved by direct Stochastic Optical Reconstruction Microscopy (d-STORM) as described ([Haas et al., 2018]). Briefly, samples were prepared for one colour 2D d-STORM utilizing a buffer containing 100 mM MEA-HCL (Sigma, M6500), 10% glucose (Sigma), 0.5 mg/ml glucose oxidase (Sigma, G2133) and 40 μg/ml catalase (Sigma, C100) in water at pH 7.5. Samples were imaged by direct STORM at room temperature in sealed 8-well ibidi μ-slides utilizing an inverted N-STROM microscope (Nikon Ti, Japan) equipped with an Apochromat 100x/1.49 NA oil immersion objective. Samples were let to equilibrate for at least 30 minutes before imaging to minimize thermal drift. Images were then acquired with highly inclined illumination and focus was maintained by hardware autofocusing (Nikon Perfect Focus System). AlexaFluor647 was first pumped in its dark state using the 640 nm laser line at maximum power (~150 mW) and then imaged continuously with a power density of ~3 kW/cm^2. Data were acquired in ‘streaming mode’ with a field-of-view (FOV) of 256x256 pixels (160 nm pixel size), at 65 frames per second for 25,000 frames with an EMCCD camera (iXon Ultra DU897, Andor). The sparsity of single molecules per frame was controlled using ~0.6 mW of the 405 nm laser. Images of AlexaFluor647 were acquired with a Quad Band Set for TIRF applications (Chroma, TRF89901, ET – 405/488/561/640 nm) and the ET645/75 m emission filter (Chroma).
(§3) Single molecule data was analysed using the Grafeo program available at https://github.com/inatamara/Grafeo-dSTORM-analysis-, as described in ([Haas et al., 2018]). Briefly, all localizations with fewer than 1,000 detected photons or localization precision lower than 20 nm were discarded. Next, the data was filtered using 2D Voronoi diagrams, setting the minimum density (an inverse of Voronoi polygon VP size) to 5∗10^-5 nm^-2. […]

[8] = test system: RAD51 clusters in EUFA423 + BRCA2 cells; experiment: RAD51 molecular clustering by SMLM (d-STORM); type: cell-based, human; conditions: 25 μM
Protocol: as §1, §2, §3

[9] = Aqueous solubility

`COc1ccc([C@H](C)NC(=O)[C@@H]2C[C@@H](O)CN2C(=O)CNC(=O)c2ccc3cc(F)ccc3n2)c(Cl)c1` [CAM833, N-(2-((2S,4R)-2-(((S)-1-(2-chloro-4-methoxyphenyl)ethyl)carbamoyl)-4-hydroxypyrrolidin-1-yl)-2-oxoethyl)-6-fluoroquinoline-2-carboxamide] gave an EC50 [1] of 61.9 µM, a half-life [2] of 47.9 min and a microsomal CLint [2] of 28.9 ± 4.16 µL/min/mg. For the same molecule, the EC50 [3] was 133 µM, the EC50 [4] was 98.8 µM and the EC50 [5] was 73 µM. The “GI50 with 3 Gy IR lower than GI50 for compound alone” value ([6]; HCT116) was “more than 2 fold”, the IC50 ([6]; 0 Gy IR, SRB 96 h) was 63.5 µM and the IC50 ([6]; 1 Gy IR, SRB 96 h) was 30.4 µM. The IC50 ([6]; 2 Gy IR, SRB 96 h) was 13 µM, the IC50 ([6]; 3 Gy IR, SRB 96 h) was 11.8 µM and the GI50 ([6]; HCT116, CAM833 alone, 96 h exposure) was 38 µM. For the same molecule, the GI50 ([6]; HCT116, combined with 3 Gy IR) was 14 µM, the “effect of combination with increasing doses of IR on growth suppression (in words)” value ([6]; fixed 10 μM dose, 0 to 3 Gy IR, SRB 96 h) was “potentiates” and the “RAD51 accumulation in damage-induced foci (in words)” value [7] was “significantly reduces”. The “formation of elongated RAD51 filaments (in words)” value ([8]; 3 Gy IR) was “prevents the formation of elongated filaments”, the “RAD51 accumulation in damage-induced foci (in words)” value ([8]; 3 h after 3 Gy IR) was “significantly reduces” and the solubility ([9]; pH 7.4 buffer, pH 7.4, aqueous buffer, thermodynamic from solid) was 7.75 µg/mL (≈ 14.7 µM). The “solubility (in words)” value ([9]; summary of Table S1) was “moderate”.
